We go through one molecule from patent publication US20090258030A1, “Materials and Methods for Improving Livestock Productivity” (priority 2006, published 2009).

Assay [1] is described as follows: Daily weight gain and feed conversion rate of beef cattle (Example 5). In kind it is in vivo, beef cattle (Ximenta'er hybridizing beef cattle). As to the method: In the following example, the test animals were beef cattle (Ximenta'er hybridizing beef cattle). The experiment was performed at the Hebei Hengshui Geling Beef Cattle Raising Farm dur the period from Oct. 10 to Dec. 21, 2002. In total, 64 heads of around 350 kg Ximenta'er hybridizing beef cattle were selected and separated into 4 groups randomly according to the principle of equalizing age, weight, grace, fur/hair condition, etc. Each group had 16 heads of beef cattle. The Control Group, Test Group I, II & III were fed a composition comprising 0, 1.5, 3, 6 g/head/day of cysteamine HCl, respectively. As noted in Tables 8, 9, and 10 below, adding a cysteamine compound to the basal diet of beef cattle can increase daily weight gain.

Assay [2] in a line: Intestine villi length and histology in pigs (Example 4). In kind it is in vivo, swine. As to conditions: 150 g of cysteamine hydrochloride per ton of feed; 30 days. The method, then:
72 piglets were evenly divided into control group and Cysteamine group. The control group was treated with basal diet only, while the Cysteamine group was added with 150 g of cysteamine hydrochloride per ton of feed. The trial was lasted for 30 days.
Immediately after evisceration, tissue samples from the small intestine, large intestine, liver, and pancreas of pigs from each treatment group were collected. The collected samples were placed in properly labeled containers containing 10% buffered neutral formalin solution. The tissue samples were fixed for 78 hours before they were processed for routine histological examination using the paraffin embedding technique (well-known to the skilled artisan).
Sections approximately 5 to 6μ thick were cut from paraffin blocked tissues using Optical 820 Rotary Microtome (Scientific Instruments Division, Buffalo, N.Y.). Some sections were stained with hematoxylin and eosin (H & E), others with Alcian blue. H & E stained sections were used for the examination of the general histology of the intestinal tract while the Alcian blue stained sections were used for goblet cells identification. The stained sections were examined under various magnifications using a light microscope.
The number and length (μm) of villi in the small intestine were counted per microscopic field; the thickness of the tunica muscularis in the small and large intestine were measured using American Optical Micrometer (American Optical Company, Buffalo, N.Y.) calibrated in millimeters. The mucosal folds in the large intestine, the density of intestinal glands (crypts), the appearance of the surface epithelium were all observed. The general histology of the liver and pancreas were examined and compared between Cysteamine treated and non-Cysteamine treated groups. Goblet cell density in the Cysteamine treated and non-Cysteamine treated pigs was compared through visual examination using light microscope.

The nature of assay [3]: Carcass composition/appearance of fattening pigs (Example 3). In kind it is in vivo, swine. As to conditions: 150 g cysteamine hydrochloride per ton of feed. As to the method:
72 piglets were divided evenly into control group and Cysteamine group. The control group was treated with basal diet while the Cysteamine group was treated with basal diet added with 150 g cysteamine hydrochloride per ton of feed. Upon reaching the market weight of 85-90 kg, five animals from each treatment were slaughtered after fasting for one day. During slaughter, the animals were stunned with a stunning gun, bled, dehaired and eviscerated. The carcass was split […] and then chilled for 24 hours prior to fabrication. The slaughter and the chilled carcass weights were recorded. The chilled carcass weight expressed as percentage of the slaughter weight represents the dressed yield. The wholesale and retail cuts of each animals were weighed and recorded. The values were expressed as the percentage of the live weight and of the chilled carcass weight.
The area of the longissimus dorsi (LD) muscle was measured on the 12th rib of the right part of the carcasses. This was done by tracing the outline of the whole LD muscle on acetate paper and the area was measured with the use of a grading method.
There were no significant interaction effects.

The mark [4] stands for this setting: slaughter at market weight 85-90 kg.

SMILES strings stand for the structures. Counter-ions that a name gives are not always drawn. Marks after values point to notes of the source that are not given here.

As for `NCCS` [Cysteamine Hydrochloride, cysteamine hydrochloride], the daily weight gain in assay [1] (Test Group III: 6 g/head/day, p<0.05 vs Control, Test Group I & II) was found to be 1.217 kg. In addition, in assay [1] (Test I: 1.5 g/head/day), the “Feed Conversion Rate (FCR): Concentrated feed” value is given as 3.54, the “Feed Conversion Rate (FCR): Corn Silage” value turned out to be 14.14, the “Feed Conversion Rate (FCR): Raw Grass” value amounted to 1.21 and the “Final Wt.” value is 423.8 kg. Moreover, in assay [1] (Test II: 3 g/head/day), the “Feed Conversion Rate (FCR): Concentrated feed” value is 3.70^a, the “Feed Conversion Rate (FCR): Corn Silage” value was 14.42^a, the “Feed Conversion Rate (FCR): Raw Grass” value is 1.27^a and the “Final Wt.” value was 420.5 kg. In assay [1] (Test III: 6 g/head/day), the “Feed Conversion Rate (FCR): Concentrated feed” value was 3.09^b, the “Feed Conversion Rate (FCR): Corn Silage” value is recorded as 12.87^b, the “Feed Conversion Rate (FCR): Raw Grass” value was 1.06^a and the “Final Wt.” value stood at 432.7 kg. For the same molecule, in assay [2], the “Villi Length, Small Intestines” value was 2.15 ± 0.09^A; the “goblet cells in the small and large intestine vs non-Cysteamine-treated” value is “noticeably larger and highly distended”; the “number and length of small intestinal villi vs non-Cysteamine treated” value was “more numerous and longer”. Moreover, in assay [3], the “backfat vs pigs fed diet without cysteamine hydrochloride” value is “significantly thinner”; the “dressing percentage, loin eye area, and lean:fat ratio vs pigs fed without cysteamine hydrochloride” value is reported as “no significant differences”; the “loin cut and lean trimmings as a percent of the live-weight vs pigs fed without cysteamine hydrochloride” value was “significantly higher”. In assay [3] (setting [4]), the Dressing % is listed as 69.012%, the “Lean:Fat Ratio” value was 0.105 and the “Loin Eye Area (sq.cm)” value is recorded as 4.850 sq.cm. Also, the “Backfat Thickness (cm)” value in assay [3] (slaughter at market weight 85-90 kg, P < 0.05 vs non-cysteamine HCl) is 1.91^a cm.
